Biological target: T1, hERG potassium channel (Homo sapiens, UniProt Q12809)
T1 construct: expressed in transfected cells; host or cells: HEK293
Assay: Inhibitory effect against hERG channel activity (manual patch clamp, HEK293 cells stably expressing hERG)
Assay type: cell-based
Conditions: HEK293 cell line stably expressing hERG
Experimental: Example 131: Assay of Inhibitory Effect of Compound Against hERG Channel Activity
The HEK293 cell line stably expressed by the hERG potassium channel was adopted for detection using manual patch clamp. Firstly, the HEK293 cell line stably expressed by the hERG potassium channel was separated and laid on a cover glass before the patch clamp detection test, and the test detection was carried out after culture for 18 h. Then a capillary glass tube was drawn into a recording electrode, and the recording electrode was contacted onto the cells under an inverted microscope to form a whole-cell recording mode. After necessary compensation and recording of the membrane capacitance and series resistance, current recording was performed according to the set current stimulation protocol. After the hERG current stabilized, administration was started and the current detected in compound-free extracellular fluid for each cell served as its own control group, and multiple cells were repeatedly tested independently. The current acted for each drug concentration and the current of the blank control were standardized, then the inhibition rate corresponding to each drug concentration was calculated, and finally the half-inhibition concentration IC50 value of each compound was calculated.

T1 sequence (Q12809 whole entry): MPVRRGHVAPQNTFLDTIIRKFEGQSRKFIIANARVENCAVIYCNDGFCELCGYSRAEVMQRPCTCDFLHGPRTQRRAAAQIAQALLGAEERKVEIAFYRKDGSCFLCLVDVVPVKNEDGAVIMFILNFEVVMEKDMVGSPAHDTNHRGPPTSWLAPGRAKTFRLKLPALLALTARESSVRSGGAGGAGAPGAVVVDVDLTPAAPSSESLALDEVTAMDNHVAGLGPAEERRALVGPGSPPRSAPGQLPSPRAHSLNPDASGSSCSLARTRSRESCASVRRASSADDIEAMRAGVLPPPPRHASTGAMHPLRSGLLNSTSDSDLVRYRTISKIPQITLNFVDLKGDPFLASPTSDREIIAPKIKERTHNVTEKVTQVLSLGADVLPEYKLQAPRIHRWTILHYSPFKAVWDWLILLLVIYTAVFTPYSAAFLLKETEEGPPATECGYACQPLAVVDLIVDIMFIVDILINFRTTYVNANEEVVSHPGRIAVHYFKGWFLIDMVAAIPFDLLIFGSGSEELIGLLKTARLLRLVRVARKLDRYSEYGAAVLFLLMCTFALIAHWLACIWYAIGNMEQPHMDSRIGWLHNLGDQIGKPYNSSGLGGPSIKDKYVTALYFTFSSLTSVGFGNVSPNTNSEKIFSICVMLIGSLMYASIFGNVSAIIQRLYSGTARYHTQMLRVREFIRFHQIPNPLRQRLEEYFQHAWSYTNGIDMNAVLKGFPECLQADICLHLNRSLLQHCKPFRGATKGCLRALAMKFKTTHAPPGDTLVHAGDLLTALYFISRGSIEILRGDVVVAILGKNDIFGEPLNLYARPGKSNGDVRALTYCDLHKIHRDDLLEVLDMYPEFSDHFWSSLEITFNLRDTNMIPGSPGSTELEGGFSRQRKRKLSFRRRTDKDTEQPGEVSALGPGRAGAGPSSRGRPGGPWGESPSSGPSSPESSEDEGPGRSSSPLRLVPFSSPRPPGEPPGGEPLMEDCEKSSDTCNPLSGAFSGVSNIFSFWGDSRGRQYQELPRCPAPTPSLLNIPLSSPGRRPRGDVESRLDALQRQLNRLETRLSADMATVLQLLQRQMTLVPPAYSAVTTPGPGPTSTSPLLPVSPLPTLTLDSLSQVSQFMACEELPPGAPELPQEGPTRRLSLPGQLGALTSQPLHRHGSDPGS

| SMILES | IC50 |
| --- | --- |
| COc1cccc(F)c1-c1cc2c(-c3ccc4c(c3)OCC3CN(C)CCN43)n[nH]c2cc1C#N (stereo not shown) [Compound 6] | 17800 nM |
| COc1ccc(F)c(F)c1-c1cc2c(-c3ccc4c(c3)OCC3CN(C)CCN43)n[nH]c2cc1C#N (stereo not shown) [Compound 16] | 23600 nM |
| CNCc1cc(F)c(-c2cc3c(-c4ccc5c(c4)OCC4CN(C)CCN54)n[nH]c3cc2C#N)c(F)c1 (stereo not shown) [Compound 18] | 11800 nM |
| CN1CCN2c3ccc(-c4n[nH]c5cc(C#N)c(-c6c(F)cc(C(=O)N7CC(N(C)C)C7)cc6F)cc45)cc3OCC2C1 (stereo not shown) [Compound 35] | 31800 nM |

Biological target: HPK1 (Homo sapiens, UniProt Q92918)
Assay: Inhibitory effect against enzyme activity of HPK1 (lantha Screen, PKC substrate)
Assay type: biochemical
Conditions: class symbols defined as IC50 ranges, read-out: Inhibition rate (%)
Experimental: Example 130: Assay of Inhibitory Effect of Compound Against Enzyme Activity of HPK1
The inhibitory effect of the compound against the enzyme activity of HPK1 was determined by using a lantha Screen method with PKC as a substrate. The process comprises the following specific steps: the HPK1 protein was incubated with the serially-diluted compound at 28° C. for 10 min followed by addition of fluoroescein-labeled PKC substrate and ATP to react for 90 min. After termination of the reaction, a Terbium-labeled antibody against phosphorylated PKC was added and incubated for 60 min. The energy transfer of Teribium and fluoroscein was monitored by detecting luminescence at 520 nm and 450 nm to quantify PKC as the level of phosphorylation of […]. Inhibition % and IC50 of the compound were calculated compared to the control group.

HPK1, sequence (Q92918 whole entry): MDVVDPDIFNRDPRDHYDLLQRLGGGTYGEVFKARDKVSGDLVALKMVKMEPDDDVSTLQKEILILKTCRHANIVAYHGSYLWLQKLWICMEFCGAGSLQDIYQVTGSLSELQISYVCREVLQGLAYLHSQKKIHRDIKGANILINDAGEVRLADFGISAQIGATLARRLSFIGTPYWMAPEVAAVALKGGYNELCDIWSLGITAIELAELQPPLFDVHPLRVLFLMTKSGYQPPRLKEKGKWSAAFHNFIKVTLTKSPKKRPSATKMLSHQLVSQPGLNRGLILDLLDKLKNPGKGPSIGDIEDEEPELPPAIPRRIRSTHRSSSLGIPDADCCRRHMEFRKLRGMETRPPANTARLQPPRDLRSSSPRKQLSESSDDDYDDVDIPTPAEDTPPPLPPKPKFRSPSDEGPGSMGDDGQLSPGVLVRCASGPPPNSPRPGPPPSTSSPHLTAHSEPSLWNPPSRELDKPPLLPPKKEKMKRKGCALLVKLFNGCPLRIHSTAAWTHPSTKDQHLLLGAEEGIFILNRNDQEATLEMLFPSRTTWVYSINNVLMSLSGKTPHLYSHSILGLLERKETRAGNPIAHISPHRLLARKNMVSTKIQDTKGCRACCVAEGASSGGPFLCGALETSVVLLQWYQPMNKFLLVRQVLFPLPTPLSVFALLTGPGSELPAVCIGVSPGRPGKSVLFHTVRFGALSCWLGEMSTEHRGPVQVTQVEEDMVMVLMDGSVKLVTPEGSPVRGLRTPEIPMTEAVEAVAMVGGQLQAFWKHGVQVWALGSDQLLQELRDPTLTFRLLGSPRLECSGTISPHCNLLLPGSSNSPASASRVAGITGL

| IC50 | SMILES |
| --- | --- |
| ≤ 10 nM | COc1cccc(F)c1-c1cc2c(-c3ccc4c(c3)OCC3CN(C)CCN43)n[nH]c2cc1C#N (stereo not shown) [Compound 6] |
| ≤ 10 nM | COc1ccc(F)c(F)c1-c1cc2c(-c3ccc4c(c3)OCC3CN(C)CCN43)n[nH]c2cc1C#N (stereo not shown) [Compound 16] |
| ≤ 10 nM | CNCc1cc(F)c(-c2cc3c(-c4ccc5c(c4)OCC4CN(C)CCN54)n[nH]c3cc2C#N)c(F)c1 (stereo not shown) [Compound 18] |
| ≤ 10 nM | CN1CCN2c3ccc(-c4n[nH]c5cc(C#N)c(-c6c(F)cc(C(=O)N7CC(N(C)C)C7)cc6F)cc45)cc3OCC2C1 (stereo not shown) [Compound 35] |
| ≤ 10 nM | Cc1n[nH]cc1-c1cc2c(-c3ccc4c(c3)OCC3CN(C)CCN43)n[nH]c2cn1 (stereo not shown) [Compound 72] |
| 10 to 100 nM | COc1ccc(C#N)c(F)c1-c1cc2c(-c3ccc4c(c3)OCC3CN(C)CCN43)n[nH]c2cn1 (stereo not shown) [Compound 74] |
| 10 to 100 nM | COc1c(F)ccc(F)c1-c1cc2c(-c3ccc4c(c3)OCC3CN(C)CCN43)n[nH]c2cn1 (stereo not shown) [Compound 75] |
| 10 to 100 nM | CN1CCN2c3ccc(-c4n[nH]c5cnc(-c6ccc(C(=O)N7CC(N(C)C)C7)cc6)cc45)cc3OCC2C1 (stereo not shown) [Compound 76] |
| ≤ 10 nM | CN1CCN2c3ccc(-c4n[nH]c5cnc(-c6cccn7ccnc67)cc45)cc3OCC2C1 (stereo not shown) [Compound 77] |
| ≤ 10 nM | CN1CCN2c3ccc(-c4n[nH]c5cnc(-c6cnn7ccccc67)cc45)cc3OCC2C1 (stereo not shown) [Compound 78] |
| 10 to 100 nM | COc1cccc(F)c1-c1ncc2[nH]nc(-c3ccc4c(c3)OCC3CN(C)CCN43)c2n1 (stereo not shown) [Compound 79] |
| 10 to 100 nM | CNCc1cc(C)c(-c2ncc3[nH]nc(-c4ccc5c(c4)OCC4CN(C)CCN54)c3n2)c(F)c1 (stereo not shown) [Compound 80] |
| 10 to 100 nM | CNCc1cc(F)c(-c2ncc3[nH]nc(-c4ccc5c(c4)OCC4CN(C)CCN54)c3n2)c(F)c1 (stereo not shown) [Compound 81] |
| 10 to 100 nM | COc1cccc(F)c1-c1nc2c(-c3ccc4c(c3)OCC3CN(C)CCN43)n[nH]c2cc1C#N (stereo not shown) [Compound 82] |
| ≤ 10 nM | CNCc1cc(C)c(-c2nc3c(-c4ccc5c(c4)OCC4CN(C)CCN54)n[nH]c3cc2C#N)c(F)c1 (stereo not shown) [Compound 83] |
| ≤ 10 nM | CNCc1cc(F)c(-c2nc3c(-c4ccc5c(c4)OCC4CN(C)CCN54)n[nH]c3cc2C#N)c(F)c1 (stereo not shown) [Compound 84] |
| 10 to 100 nM | COc1cccc(F)c1-c1ccc2[nH]nc(-c3ccc4c(c3)OCC3CN(C)CCN43)c2n1 (stereo not shown) [Compound 85] |
| 10 to 100 nM | CNCc1cc(C)c(-c2ccc3[nH]nc(-c4ccc5c(c4)OCC4CN(C)CCN54)c3n2)c(F)c1 (stereo not shown) [Compound 86] |
| 10 to 100 nM | CNCc1cc(F)c(-c2ccc3[nH]nc(-c4ccc5c(c4)OCC4CN(C)CCN54)c3n2)c(F)c1 (stereo not shown) [Compound 87] |
| ≤ 10 nM | COc1cccc(F)c1-c1cc2c(-c3ccc4c(c3)OCC3CN(C)CCN43)c[nH]c2cn1 (stereo not shown) [Compound 88] |

| IC50 | SMILES |
| --- | --- |
| ≤ 10 nM | CNCc1cc(C)c(-c2cc3c(-c4ccc5c(c4)OCC4CN(C)CCN54)c[nH]c3cn2)c(F)c1 (stereo not shown) [Compound 89] |
| ≤ 10 nM | CNCc1cc(F)c(-c2cc3c(-c4ccc5c(c4)OCC4CN(C)CCN54)c[nH]c3cn2)c(F)c1 (stereo not shown) [Compound 90] |
| ≤ 10 nM | COc1cccc(F)c1-c1cc2c(-c3ccc4c(c3)OCC3CN(C)CCN43)c[nH]c2cc1C#N (stereo not shown) [Compound 91] |
| ≤ 10 nM | CNCc1cc(C)c(-c2cc3c(-c4ccc5c(c4)OCC4CN(C)CCN54)c[nH]c3cc2C#N)c(F)c1 (stereo not shown) [Compound 92] |
| ≤ 10 nM | CNCc1cc(F)c(-c2cc3c(-c4ccc5c(c4)OCC4CN(C)CCN54)c[nH]c3cc2C#N)c(F)c1 (stereo not shown) [Compound 93] |
| 10 to 100 nM | COc1cccc(F)c1-c1ncc2[nH]cc(-c3ccc4c(c3)OCC3CN(C)CCN43)c2n1 (stereo not shown) [Compound 94] |
| ≤ 10 nM | CNCc1cc(C)c(-c2ncc3[nH]cc(-c4ccc5c(c4)OCC4CN(C)CCN54)c3n2)c(F)c1 (stereo not shown) [Compound 95] |
| 10 to 100 nM | CNCc1cc(F)c(-c2ncc3[nH]cc(-c4ccc5c(c4)OCC4CN(C)CCN54)c3n2)c(F)c1 (stereo not shown) [Compound 96] |
| 10 to 100 nM | COc1cccc(F)c1-c1nc2c(-c3ccc4c(c3)OCC3CN(C)CCN43)c[nH]c2cc1C#N (stereo not shown) [Compound 97] |
| ≤ 10 nM | CNCc1cc(C)c(-c2nc3c(-c4ccc5c(c4)OCC4CN(C)CCN54)c[nH]c3cc2C#N)c(F)c1 (stereo not shown) [Compound 98] |
| ≤ 10 nM | CNCc1cc(F)c(-c2nc3c(-c4ccc5c(c4)OCC4CN(C)CCN54)c[nH]c3cc2C#N)c(F)c1 (stereo not shown) [Compound 99] |
| ≤ 10 nM | COc1cccc(F)c1-c1ccc2[nH]cc(-c3ccc4c(c3)OCC3CN(C)CCN43)c2n1 (stereo not shown) [Compound 100] |
| ≤ 10 nM | CNCc1cc(C)c(-c2ccc3[nH]cc(-c4ccc5c(c4)OCC4CN(C)CCN54)c3n2)c(F)c1 (stereo not shown) [Compound 101] |
| ≤ 10 nM | CNCc1cc(F)c(-c2ccc3[nH]cc(-c4ccc5c(c4)OCC4CN(C)CCN54)c3n2)c(F)c1 (stereo not shown) [Compound 102] |
| ≤ 10 nM | CN1CCN2c3ccc(-c4cnc5[nH]cc(-c6ccc(C(=O)N7CC(N(C)C)C7)cc6)c5c4)cc3OCC2C1 (stereo not shown) [Compound 103] |
| 10 to 100 nM | CN1CCN2c3ccc(-c4cnc5[nH]cc(-c6ccc(C(=O)N7CC(O)C7)cc6)c5c4)cc3OCC2C1 (stereo not shown) [Compound 104] |
| ≤ 10 nM | CN(C)CCN(C)C(=O)c1ccc(-c2c[nH]c3ncc(-c4ccc5c(c4)OCC4CN(C)CCN54)cc23)cc1 (stereo not shown) [Compound 105] |
| ≤ 10 nM | CN1CCN2c3ccc(-c4cnc5[nH]cc(-c6ccc(C(=O)N7CC8(COC8)C7)cc6)c5c4)cc3OCC2C1 (stereo not shown) [Compound 106] |
| ≤ 10 nM | CN1CC(CN(C)C(=O)c2ccc(-c3c[nH]c4ncc(-c5ccc6c(c5)OCC5CN(C)CCN65)cc34)cc2)C1 (stereo not shown) [Compound 107] |
| 10 to 100 nM | CN1CCN2c3ccc(-c4cnc5[nH]cc(-c6ccc(C(=O)C7CNC7)cc6)c5c4)cc3OCC2C1 (stereo not shown) [Compound 108] |

| IC50 | SMILES |
| --- | --- |
| ≤ 10 nM | CN1CCN2c3ccc(-c4cnc5[nH]cc(-c6ccc(OC7CCNCC7)cc6)c5c4)cc3OCC2C1 (stereo not shown) [Compound 109] |
| ≤ 10 nM | CN(C)CCCOc1ccc(-c2c[nH]c3ncc(-c4ccc5c(c4)OCC4CN(C)CCN54)cc23)cc1 (stereo not shown) [Compound 110] |
| ≤ 10 nM | CN1CC(C(O)c2ccc(-c3c[nH]c4ncc(-c5ccc6c(c5)OCC5CN(C)CCN65)cc34)cc2)C1 (stereo not shown) [Compound 111] |
| ≤ 10 nM | CN1CCN2c3ccc(-c4cnc5[nH]cc(-c6ccc(C(=O)N7CC(O)C7)cc6)c5n4)cc3OCC2C1 (stereo not shown) [Compound 113] |
| ≤ 10 nM | CN(C)CCN(C)C(=O)c1ccc(-c2c[nH]c3ncc(-c4ccc5c(c4)OCC4CN(C)CCN54)nc23)cc1 (stereo not shown) [Compound 114] |
| ≤ 10 nM | CN1CCN2c3ccc(-c4cnc5[nH]nc(-c6ccc(C(=O)N7CC(N(C)C)C7)cc6)c5c4)cc3OCC2C1 (stereo not shown) [Compound 115] |
| 10 to 100 nM | CN1CCN2c3ccc(-c4cnc5[nH]nc(-c6ccc(C(=O)N7CC(O)C7)cc6)c5c4)cc3OCC2C1 (stereo not shown) [Compound 116] |
| ≤ 10 nM | CN(C)CCN(C)C(=O)c1ccc(-c2n[nH]c3ncc(-c4ccc5c(c4)OCC4CN(C)CCN54)cc23)cc1 (stereo not shown) [Compound 117] |
| ≤ 10 nM | CN1CCN2c3ccc(-c4cnc5[nH]nc(-c6ccc(C(=O)N7CC(N(C)C)C7)cc6)c5n4)cc3OCC2C1 (stereo not shown) [Compound 118] |
| 10 to 100 nM | CN1CCN2c3ccc(-c4cnc5[nH]nc(-c6ccc(C(=O)N7CC(O)C7)cc6)c5n4)cc3OCC2C1 (stereo not shown) [Compound 119] |
| ≤ 10 nM | CN(C)CCN(C)C(=O)c1ccc(-c2n[nH]c3ncc(-c4ccc5c(c4)OCC4CN(C)CCN54)nc23)cc1 (stereo not shown) [Compound 120] |
| ≤ 10 nM | CNCc1cc(C)c(-c2cc3c(-c4ccc5c(c4)NCC4CN(C)CCN54)n[nH]c3cc2C#N)c(F)c1 (stereo not shown) [Compound 121] |
| ≤ 10 nM | CNCc1cc(C)c(-c2cc3c(-c4ccc5c(c4)N(C)CC4CN(C)CCN54)n[nH]c3cc2C#N)c(F)c1 (stereo not shown) [Compound 122] |
| ≤ 10 nM | CNCc1cc(C)c(-c2cc3c(-c4ccc5c(c4)OCC4CNCCN54)n[nH]c3cc2C#N)c(F)c1 (stereo not shown) [Compound 123] |
| ≤ 10 nM | CCN1CCN2c3ccc(-c4n[nH]c5cc(C#N)c(-c6c(C)cc(CNC)cc6F)cc45)cc3OCC2C1 (stereo not shown) [Compound 124] |
| ≤ 10 nM | CNCc1cc(C)c(-c2cc3c(-c4ccc5c(c4)OCC4CN(C6CC6)CCN54)n[nH]c3cc2C#N)c(F)c1 (stereo not shown) [Compound 125] |
| ≤ 10 nM | CNCc1cc(C)c(-c2cc3c(-c4ccc5c(c4)OCC4CN(C6COC6)CCN54)n[nH]c3cc2C#N)c(F)c1 (stereo not shown) [Compound 126] |
| ≤ 10 nM | CNCc1cc(C)c(-c2cc3c(-c4ccc5c(c4)OCC4CN(C6CCN(C)CC6)CCN54)n[nH]c3cc2C#N)c(F)c1 (stereo not shown) [Compound 127] |
| ≤ 10 nM | CNCc1cc(C)c(-c2cc3c(-c4ccc5c(c4)OCC4CN(CC(F)(F)F)CCN54)n[nH]c3cc2C#N)c(F)c1 (stereo not shown) [Compound 128] |
| ≤ 10 nM | CNCc1cc(C)c(-c2cc3c(-c4ccc5c(c4)OCC4CN(CCC#N)CCN54)n[nH]c3cc2C#N)c(F)c1 (stereo not shown) [Compound 129] |

Source: patent US12686689B2, “HPK1 inhibitor, preparation method therefor and use thereof” (WIGEN BIOMEDICINE TECHNOLOGY (SHANGHAI) CO., LTD., priority 2020, dated 2026)
